Assay type in all cases: in vivo, Lewis rats
Experiment [1] has as its system polymorphonuclear cells (PMN). Put plainly: Quantification of infiltrating polymorphonuclear cells on histological sections in EIU. The conditions noted are these: IVT injection (SEQ ID NO: 11: 0.2 µg/injection); at 24 hours; mean ± SEM. On the procedure: (§1) For immunohistochemistry, eyeballs were collected and fixed for 1h at room temperature in phosphate buffered saline (PBS) containing 4% paraformaldehyde before being rinsed overnight in PBS. The next day, samples were embedded and frozen in optimal cutting-temperature (OCT) compound (Tissue-Tek®, Sakura Finetek, Zoeterwoude, Netherland) and stored at -80°C. Frozen antero-posterior sections of eyes (10 µm thick) were performed at the optic nerve level using a cryostat (Leica CM 3050S, Rueil-Malmaison, France) and mounted on super-frost slides for immunohistochemical analysis.
(§2) A second set of experiment was designed to evaluate the anti-inflammatory effect of the JNK-inhibitor (poly-)peptide of SEQ ID NO: 11 at the cellular and tissue level as well as the biodistribution of this molecule 24 hours after administration. Rats were randomized into 11 experimental groups. 6 groups of rats with uveitis: untreated uveitic rats, rats injected intravenously with NaCl or the JNK-inhibitor (poly-)peptide of SEQ ID NO: 11 and rats injected intravitreously with the vehicle, the JNK-inhibitor (poly-)peptide of SEQ ID NO: 11 or dexamethasone. The 5 additional groups without uveitis were: untreated healthy rats, rats treated by NaCl IV or the JNK-inhibitor (poly-)peptide of SEQ ID NO: 11 IV and rats injected IVT with NaCl or the JNK-inhibitor (poly-)peptide of SEQ ID NO: 11. Three eyes from separate rats were collected per group and used for immunohistochemistry.
(§3) To characterize the cellular infiltrate, sections were double-stained with ED1 and iNOS. […] After staining nuclei with DAPI (Sigma-Aldrich, Saint-Quentin Fallavier, France), sections were mounted in PBS/Glycerol (1/1) and observed by fluorescence photomicroscopy (FXA, Microphot, Nikon, Melville, USA). […] ED1 positive cells and polymorphonuclear cells, identified by the shape of their nuclei stained with DAPI, were quantified on histological sections. […] Results were expressed as mean ± standard error of the mean (SEM).

The subject of experiment [2] is Endotoxin-Induced Uveitis (EIU). The experiment in a line: Scoring of Endotoxin-Induced Uveitis (EIU) by slit lamp. The conditions noted are these: intravitreous (IVT) administration at LPS challenge (SEQ ID NO: 11: 0.2 µg/injection); scored at 24 hours on a scale from 0 to 5; mean ± SEM. On the procedure: For intravenous (IV) injection, 100 µL of saline (NaCl 0.9%) or the JNK-inhibitor (poly-)peptide of SEQ ID NO: 11 (20 µg/kg in saline) were injected in a tail vein using a 25G-needle connected on a 1 mL syringe (Becton Dickinson, France). For intravitreous (IVT) injection, 5 µL of saline or the JNK-inhibitor (poly-)peptide of SEQ ID NO: 11 (0.2 µg/injection in saline) were injected in both eyes using a 30G disposable needle (BD-microfine syringe, nm Médical, Asnière, France). The IV dose of 20 µg/kg (i.e. 3.5 µg/rat in rats weighing 175g) was chosen according to studies showing that the JNK-inhibitor (poly-)peptide of SEQ ID NO: 11 is active at very low doses in other models. For intravitreous injections, the inventors used the minimal dose used in direct ear application after acute noise trauma in patients. This corresponds to 5% of the dose injected intravenously. […]
In a first set of experiment, 70 rats were randomized into 14 experimental groups with 5 rats per group. […] Clinical ocular inflammation was recorded only at 24 hours (see Scoring of Endotoxin-Induced Uveitis (EIU) section). […]
Animals were examined by slit lamp at 24 hours, the clinical peak of the disease in our experiments. The intensity of clinical ocular inflammation was scored on a scale from 0 to 5 for each eye as described previously 10: grade (0) indicates no inflammation; grade (1) indicates the presence of a minimal iris and conjunctival vasodilation but without the observation of flare or cells in the anterior chamber (AC); grade (2) indicates the presence of moderate iris and conjunctival vessel dilation but without evident flare or cells in the AC; grade (3) indicates the presence of intense iris vessels dilation, flare and less than 10 cells per slit lamp field in the AC; grade (4) indicates the presence of more severe clinical signs than grade 3, with more than 10 cells in the AC with or without the formation of a hypopion; grade (5) indicates the presence of intense inflammatory reaction, fibrin formation in the AC and total seclusion of the pupil. […]

Another experiment has as its system ED1 positive cells. The experiment in a line: Quantification of infiltrating ED1 positive cells on histological sections in EIU. The conditions noted are these: IVT injection (SEQ ID NO: 11: 0.2 µg/injection); 24 hours after LPS challenge; mean ± SEM. The method, then: as §1, §2, §3

These results are taken from patent publication EP2902035B1, “Cell-permeable peptide inhibitors of the JNK signal transduction pathway for use in the treatment of inflammatory eye diseases” (Xigen Inflammation Ltd., priority 2010, dated 2012).

With Dexamethasone sodium phosphate, the “number of polymorphonuclear cells (PMN)” value in experiment [1] was determined as 42 ± 11. Moreover, in experiment [2], the EIU clinical scores was 1.8 ± 0.4 A.U. In addition, the “number of ED1 positive infiltrating cells” value in the experiment on ED1 positive cells is 79 ± 15.
